Source: EP4389751A1, “HETEROCYCLIC COMPOUNDS AND USES THEREOF” (Kumquat Biosciences Inc., priority 2021, dated 2024)

target: T1, K-Ras G12S (Homo sapiens, UniProt P01116, G12S); assay: HTRF assay of the K-Ras / SOS1 interaction; assay type: biochemical; conditions: IC50 (against K-Ras G12D) to IC50 (against K-Ras G12S)
T1 construct: made in house; host or cells: E. coli (e.g., BL21 (DE3))
Description: This assay can be also used to assess a selective inhibition or reduction of signaling output of a mutant Ras protein relative to a wildtype, or relative to a different mutant Ras protein. For example, the equilibrium interaction of wildtype Kras or K-Ras mutant (e.g., wildtype or a mutant thereof including those mentioned in Example 6) with SOS1 (e.g., hSOS1) can be assessed as a proxy or an indication for a subject compound's ability to bind and inhibit Ras protein. HTRF assay detects from (i) a fluorescence resonance energy transfer (FRET) donor (e.g., antiGST-Europium) that is bound to GST-tagged K-Ras mutant to (ii) a FRET acceptor (e.g., anti-6His-XL665) bound to a His-tagged hSOS 1.
The assay buffer can contain ~5 mM HEPES pH 7.4, -150 mM NaCI, - 1 mM DTT, 0.05% BSA and 0.0025% (v/v) Igepal. A Ras working solution is prepared in an assay buffer containing typically a suitable amount of the protein construct (e.g., GST-tagged K-Ras mutant) and the FRET donor (e.g., antiGST-Eu(K) from Cisbio, France). A SOS1 working solution is prepared in an assay buffer containing suitable amount of the protein construct (e.g., His-hSOS1) and the FRET acceptor (e.g., anti-6His-XL665 from Cisbio, France). A suitable amount of the protein construct will depend on the range of activity or range of IC50 values being detected or under investigation. For detecting IC50 within a range of 500 nM, the protein constructs of the same range of molarity can be utilized.
A fixed volume of DMSO with or without test compound is transferred into a 384-well plate. Ras working solution is added to all wells of the test plate. SOS1 working solution is added to all wells except for those that are subsequently filled the inhibitor control solution. Upon incubation for about 10 minutes or longer, the fluorescence is measured with a M1000Pro plate reader (Tecan) using HTRF detection (excitation 337nm, emission 1 : 620nm, emission 2: 665nm). Compounds are tested in duplicates at different concentrations (for example, 10 µM, 2.5 µM, 0.63 µM, 0.16 µM, 0.04 µM, 0.01 µM test compound). The ratiometric data (i.e., emission 2 divided by emission 1) is used to calculate IC50 values against Ras using GraphPad Prism (GraphPad software). Following this general procedure, samples were tested with or without a subject compound disclosed herein including compounds exemplified in Table 3 to assess their abilities to inhibit K-Ras G12S relative to another mutant (e.g., K-Ras G12D). Signaling output measured in terms of IC50 values can be obtained, a ratio of IC50 against one mutant relative to another mutant can be calculated. For instance, a selective reduction of K-Ras G12S signaling output can be evidenced by a ratio greater than one. In particular, a selective reduction of K-Ras G12S signaling relative to K-Ras G12D signaling is evidenced as the ratio of IC50 (against K-Ras G12D) to IC50 (against K-Ras G12S) is greater than 1. […]

T1 sequence (P01116 1-188 isoform P01116-2 G12S): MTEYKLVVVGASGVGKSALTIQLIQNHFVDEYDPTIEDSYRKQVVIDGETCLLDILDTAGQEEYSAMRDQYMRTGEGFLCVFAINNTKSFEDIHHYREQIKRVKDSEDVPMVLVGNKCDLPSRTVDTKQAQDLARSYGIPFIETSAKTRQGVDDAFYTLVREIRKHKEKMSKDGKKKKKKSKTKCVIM

SMILES	Ratio of IC50 KRAS G12D vs. IC50 KRAS G12S
Cc1nc(C(C)C)nn1C(=O)N1CC2(CCCN(c3nc(OC[C@@]45CCCN4C[C@H](F)C5)nc4c(F)c(-c5ccc(F)c6sc(N)c(C#N)c56)c(Cl)cc34)C2)C1 [Compound A240, 2-amino-4-(6-chloro-8-fluoro-2-(((2R,7aS)-2-fluorotetrahydro-1H-pyrrolizin-7 a(5H)-yl)methoxy)-4-(2-(3-isopropyl-5-methyl-1H-1,2,4-triazole-1-carbonyl)-2,6-diazaspiro[3.5]nonan-6-yl)quinazolin-7-yl)-7-fluorobenzo[b]thiophene-3-carbonitrile]	A (A: indicates that the ratio of IC50 against KrasG12D vs. IC50 against KrasG12S is 1-fold or greater)
CO[C@@H]1CN(C)C[C@H]1Oc1nc(N2CC3CCC(C2)N3C(=O)n2cc(C#N)cn2)c2cc(Cl)c(-c3ccc(F)c4sc(N)nc34)c(F)c2n1 [Compound A248, 1-(3-(7-(2-amino-7-fluorobenzo[d]thiazol-4-yl)-6-chloro-8-fluoro-2-(((3R,4R)-4-methoxy-1-methylpyrrolidin-3-yl)oxy)quinazolin-4-yl)-3,8-diazabicyclo[3.2.1]octane-8-carbonyl)-1H-pyrazole-4-carbonitrile]	A (A: indicates that the ratio of IC50 against KrasG12D vs. IC50 against KrasG12S is 1-fold or greater)
Nc1nc2c(-c3c(Cl)cc4c(NC5CCN(C(=O)n6cccn6)CC5)nc(OC[C@@]56CCCN5C[C@H](F)C6)nc4c3F)ccc(F)c2s1 [Compound A254, (4-((7-(2-amino-7-fluorobenzo[d]thiazol-4-yl)-6-chloro-8-fluoro-2-(((2R,7aS)-2-fluorotetrahydro-1H-pyrrolizin-7a(5H)-yl)methoxy)quinazolin-4-yl)amino)piperidin-1-yl)(1H-pyrazol-1-yl)methanone]	A (A: indicates that the ratio of IC50 against KrasG12D vs. IC50 against KrasG12S is 1-fold or greater)
CN1CCC[C@H]1COc1nc(N2CC3CCC(C2)N3C(=O)n2cc(C#N)cn2)c2cc(Cl)c(-c3ccc(F)c4sc(N)nc34)c(F)c2n1 [Compound A259, 1-(3-(7-(2-amino-7-fluorobenzo[d]thiazol-4-yl)-6-chloro-8-fluoro-2-(((S)-1-methylpyrrolidin-2-yl)methoxy)quinazolin-4-yl)-3,8-diazabicyclo[3.2.1]octane-8-carbonyl)-1H-pyrazole-4-carbonitrile]	A (A: indicates that the ratio of IC50 against KrasG12D vs. IC50 against KrasG12S is 1-fold or greater)
Nc1nc2c(-c3c(Cl)cc4c(NCCN5CCN(C(=O)n6cncn6)CC5=O)nc(OC[C@@]56CCCN5C[C@H](F)C6)nc4c3F)ccc(F)c2s1 [Compound A261, 1-(2-((7-(2-amino-7-fluorobenzo[d]thiazol-4-yl)-6-chloro-8-fluoro-2-(((2R,7aS)-2-fluorotetrahydro-1H-pyrrolizin-7a(5H)-yl)methoxy)quinazolin-4-yl)amino)ethyl)-4-(1H-1,2,4-triazole-1-carbonyl)piperazin-2-one]	A (A: indicates that the ratio of IC50 against KrasG12D vs. IC50 against KrasG12S is 1-fold or greater)
Nc1nc2c(-c3c(Cl)cc4c(NC5CCN(C(=O)Nc6ncccn6)CC5)nc(OC[C@@]56CCCN5C[C@H](F)C6)nc4c3F)ccc(F)c2s1 [Compound A262, 4-((7-(2-amino-7-fluorobenzo[d]thiazol-4-yl)-6-chloro-8-fluoro-2-(((2R,7aS)-2-fluorotetrahydro-1H-pyrrolizin-7a(5H)-yl)methoxy)quinazolin-4-yl)amino)-N-(pyrimidin-2-yl)piperidine-1-carboxamide]	A (A: indicates that the ratio of IC50 against KrasG12D vs. IC50 against KrasG12S is 1-fold or greater)
Nc1nc2c(-c3c(Cl)cc4c(N5CCN(C6CN(C(=O)n7cncn7)C6)CC5)nc(OC[C@@]56CCCN5C[C@H](F)C6)nc4c3F)ccc(F)c2s1 [Compound A267, (3-(4-(7-(2-amino-7-fluorobenzo[d]thiazol-4-yl)-6-chloro-8-fluoro-2-(((2R,7aS)-2-fluorotetrahydro-1H-pyrrolizin-7a(5H)-yl)methoxy)quinazolm-4-yl)piperazin-1-yl)azetidin-1-yl)(1H-1,2,4-triazol-1-yl)methanone]	A (A: indicates that the ratio of IC50 against KrasG12D vs. IC50 against KrasG12S is 1-fold or greater)
N#Cc1ccn(C(=O)N2CC3CCC(C2)N3c2nc(OC[C@@]34CCCN3C[C@H](F)C4)nc3c(F)c(-c4ccc(F)c5sc(N)nc45)c(Cl)cc23)c1 [Compound A290, 1-(8-(7-(2-amino-7-fluorobenzo[d]thiazol-4-yl)-6-chloro-8-fluoro-2-(((2R,7aS)-2-fluorotetrahydro-1H-pyrrolizin-7a(5H)-yl)methoxy)quinazolin-4-yl)-3,8-diazabicyclo[3.2. 1]octane-3-carbonyl)-1H-pyrrole-3-carbonitrile]	A (A: indicates that the ratio of IC50 against KrasG12D vs. IC50 against KrasG12S is 1-fold or greater)
Nc1nc2c(-c3c(Cl)cc4c(N5CC6(CCN(C(=O)n7cncn7)CC6)C5)nc(OC[C@@]56CCCN5C[C@H](F)C6)nc4c3F)ccc(F)c2s1 [Compound A292, (2-(7-(2-amino-7-fluorobenzo[d]thiazol-4-yl)-6-chloro-8-fluoro-2-(((2R,7aS)-2-fluorotetrahydro-1H-pyrrolizin-7a(5H)-yl)methoxy)quinazolin-4-yl)-2,7-diazaspiro[3.5]nonan-7-yl)(1H-1,2,4-triazol-1-yl)methanone]	A (A: indicates that the ratio of IC50 against KrasG12D vs. IC50 against KrasG12S is 1-fold or greater)
Nc1nc2c(-c3c(Cl)cc4c(OC5CC6CN(C(=O)n7cncn7)CC65)nc(OC[C@@]56CCCN5C[C@H](F)C6)nc4c3F)ccc(F)c2s1 (stereo partly drawn) [Compound A297, (6-((7-(2-amino-7-fluorobenzo[d]thiazol-4-yl)-6-chloro-8-fluoro-2-(((2R,7aS)-2-fluorotetrahydro-1H-pyrrolizin-7a(5H)-yl)methoxy)quinazolin-4-yl)oxy)-3-azabicyclo[3.2.0]heptan-3-yl)(1H-1,2,4-triazol-1-yl)methanone]	A (A: indicates that the ratio of IC50 against KrasG12D vs. IC50 against KrasG12S is 1-fold or greater)
Nc1nc2c(-c3c(Cl)cc4c(NC5C6CN(C(=O)n7cncn7)CC65)nc(OC[C@@]56CCCN5C[C@H](F)C6)nc4c3F)ccc(F)c2s1 (stereo partly drawn) [Compound A299, (6-((7-(2-amino-7-fluorobenzo[d]thiazol-4-yl)-6-chloro-8-fluoro-2-(((2R,7aS)-2-fluorotetrahydro-1H-pyrrolizin-7a(5H)-yl)methoxy)quinazolin-4-yl)amino)-3-azabicyclo[3.1.0]hexan-3-yl)(1H-1,2,4-triazol-1-yl)methanone]	A (A: indicates that the ratio of IC50 against KrasG12D vs. IC50 against KrasG12S is 1-fold or greater)
